Publication PMC6920875, “Dithiocarbamate as a Valuable Scaffold for the Inhibition of Metallo-β-Lactmases” (Biomolecules, 2019)

Legend:
IMP-1 = target: T1, IMP-1 (Serratia marcescens, UniProt P52699); experiment: biochemical; details: read-out: inhibition against IMP-1
T1 construct: made in house; host or cells: E. coli BL21 (DE3), plasmid pET26b-IMP-1
Procedure: (§1) The dithiocarbamates, MβLs and substrates samples were prepared with 30 mM Tris, pH 7.0. […] Enzymes and inhibitors were pre-incubated for 5 min before adding substrate. […] The IC50 values were nonlinearly fitted by plotting the average percentage inhibition against inhibitor concentration. The inhibition modes of DC1 to ImiS, NDM-1 and L1 were assayed by generating Lineweaver–Burk plots, and Ki values were obtained by fitting initial velocity versus substrate concentration at each inhibitor concentration, using SigmaPlot 12.0 (Systat Software Inc., San Jose, CA, USA).
(§2) To evaluate the inhibitory activity of the dithiocarbamates, we over-expressed and purified MβLs NDM-1, VIM-2 and IMP-1 (B1), ImiS (B2), and L1 (B3) from three subclasses as previously reported. The inhibition experiments were performed with an Agilent UV8453 spectrometer. […] The concentrations of inhibitors were varied between 0 and 200 μM. The initial reaction rates were determined in the absence and presence of inhibitors in triplicate, and the generated average values were recorded.

L1 [1] = target: T2, L1 (Stenotrophomonas maltophilia, UniProt P52700); experiment: biochemical; details: read-out: inhibition against L1
T2 construct: made in house; host or cells: E. coli BL21 (DE3), plasmid pET-26b-L1
T2 sequence (P52700 34-290): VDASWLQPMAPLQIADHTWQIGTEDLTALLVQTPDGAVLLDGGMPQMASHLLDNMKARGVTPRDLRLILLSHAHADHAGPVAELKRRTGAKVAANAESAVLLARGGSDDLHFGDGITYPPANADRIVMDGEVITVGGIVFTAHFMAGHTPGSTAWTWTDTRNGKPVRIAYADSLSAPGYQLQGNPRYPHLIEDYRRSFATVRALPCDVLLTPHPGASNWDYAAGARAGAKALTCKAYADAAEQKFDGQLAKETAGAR
Procedure: as §1, §2

NDM-1 [2] = target: T3, NDM-1 (Klebsiella pneumoniae, UniProt C7C422); experiment: biochemical; details: read-out: inhibition against NDM-1
T3 construct: made in house; host or cells: E. coli BL21 (DE3), plasmid pET26b-NDM-1
T3 sequence (C7C422 29-270 limits assumed): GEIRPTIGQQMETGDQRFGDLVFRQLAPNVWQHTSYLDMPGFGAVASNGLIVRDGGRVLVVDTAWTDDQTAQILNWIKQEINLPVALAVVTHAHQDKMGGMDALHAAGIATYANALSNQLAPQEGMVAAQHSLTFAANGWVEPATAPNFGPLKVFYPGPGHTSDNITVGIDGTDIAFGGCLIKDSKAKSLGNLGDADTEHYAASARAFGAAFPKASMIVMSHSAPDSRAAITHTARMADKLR
Procedure: as §1, §2

L1 [3] = target: T2, L1; experiment: Inhibition kinetics, Lineweaver–Burk plots; type: biochemical
Procedure: as §1
(§3) To further identify the inhibition mode of the DCs against MβLs, we performed inhibition kinetics of NDM-1, ImiS and L1 by DC1, at different concentrations, with different substrate concentrations. […] Enzyme and inhibitors were pre-incubated for 5 min before starting the kinetic assays. All experimental hydrolytic rates of substrates were determined in triplicate. The inhibition mode of dithiocarbamates on MβLs was identified by generating Lineweaver–Burk plots, and Ki values were gained by fitting the initial velocity versus substrate concentration at each inhibitor concentration, using SigmaPlot 12.0.

NDM-1 [4] = target: T3, NDM-1; experiment: Inhibition kinetics, Lineweaver–Burk plots; type: biochemical
Procedure: as §1, §3

ImiS [5] = target: T4, ImiS (Aeromonas veronii, UniProt O31272); experiment: Inhibition kinetics, Lineweaver–Burk plots; type: biochemical, Aeromonas veronii bv. sobria
T4 construct: made in house; host or cells: E. coli BL21 (DE3), plasmid pET-26b-ImiS
Procedure: as §1, §3
Target sequence in this assay (O31272 28-255): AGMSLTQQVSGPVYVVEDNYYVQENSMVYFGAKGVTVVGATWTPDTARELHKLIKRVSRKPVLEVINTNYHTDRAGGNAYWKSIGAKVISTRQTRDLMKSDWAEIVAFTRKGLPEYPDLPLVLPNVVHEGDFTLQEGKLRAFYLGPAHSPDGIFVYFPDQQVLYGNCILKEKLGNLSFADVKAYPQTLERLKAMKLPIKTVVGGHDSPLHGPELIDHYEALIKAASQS

L1 [6] = target: T2, L1; experiment: Isothermal titration calorimetry (ITC) of MβL-catalysed substrate hydrolysis; type: biochemical; details: 100 nM enzyme, 1 mM cefazolin, inhibitor 0-200 μM, 25 °C
Procedure: (§4) Isothermal titration calorimetry (ITC) assays were performed on a Malvern MicroCal iTC 200 instrument (Malvern Instruments, Malvern, UK) at 25 °C, by a single injection mode. During ITC experiments the reference cell was filled with degassed water. The MβLs, substrates, and inhibitor DC1 were prepared with 50 mM Tris, pH 7.0. The concentration of MβLs used was in the range 100–200 nM, concentration of substrate was 1 mM, and concentrations of DC1 were varied between 0 and 200 µM. Before starting the measurement, the enzyme was pre-incubated with different concentrations of DC1 for 5 min, and then delivered into the sample cell (210 µL). The hydrolysis reaction in the absence of inhibitors was also determined as a control. The stirring rate of the syringe was set to 750 rpm. The system was equilibrated at the desired 25 °C. […] Heat flow was recorded as a function of time. Data were collected every 1 s until the signal reached the baseline and continued to be recorded for the length of time necessary to generate the final baseline.
(§5) Isothermal titration calorimetry (ITC) was also employed, to identify the inhibition of the dithiocarbamates on MβLs and study their thermodynamic behaviour. […]

NDM-1 [7] = target: T3, NDM-1; experiment: as above; type: biochemical; details: 150 nM enzyme, 1 mM cefazolin, inhibitor 0-200 μM, 25 °C
Procedure: as §4, §5

ImiS [8] = target: T4, ImiS; experiment: as above; type: biochemical, Aeromonas veronii bv. sobria; details: 100 nM enzyme, 1 mM imipenem, inhibitor 0-200 μM, 25 °C
Procedure: as §4, §5
Target sequence in this assay (O31272 28-255 limits assumed): as the sequence (O31272 28-255) above

T1 sequence (P52699 19-246 limits assumed): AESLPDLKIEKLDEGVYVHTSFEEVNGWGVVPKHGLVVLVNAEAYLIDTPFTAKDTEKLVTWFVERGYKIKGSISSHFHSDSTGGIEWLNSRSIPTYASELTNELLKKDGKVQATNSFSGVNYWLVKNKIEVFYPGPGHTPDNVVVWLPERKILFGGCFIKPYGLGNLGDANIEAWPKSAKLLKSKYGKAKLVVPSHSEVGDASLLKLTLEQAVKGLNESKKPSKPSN

Work on `O=C(NNC(=S)[S][K])c1ccccc1O` [DC1] yielded an inhibition at 10 µM (IMP-1) greater than 90%, an inhibition at 8 µM (L1 [1]) greater than 90% and an inhibition at 20 µM (NDM-1 [2]) greater than 90%. For the same compound, the “inhibition mode against L1” value (L1 [3]; Lineweaver–Burk plots) was “partially mixed inhibition”, the Ki (L1 [3]; read-out: Ki against L1, cefazolin 20-120 µM, inhibitor 0-20 μM, SigmaPlot fit) was 5060 nM and the “inhibition mode against NDM-1” value (NDM-1 [4]; Lineweaver–Burk plots) was “partially mixed inhibition”. The Ki (NDM-1 [4]; read-out: Ki against NDM-1, cefazolin 20-120 µM, inhibitor 0-20 μM, SigmaPlot fit) was 290 nM, the “inhibition mode against ImiS” value (ImiS [5]; Lineweaver–Burk plots) was “partially mixed inhibition” and the Ki (ImiS [5]; read-out: Ki against ImiS, imipenem 20-120 µM, inhibitor 0-20 μM, SigmaPlot fit) was 140 nM. The “reversibility of inhibition of L1 by ITC (total heat Q constant)” value (L1 [6]) was “reversible”, the “reversibility of inhibition of NDM-1 by ITC (total heat Q constant)” value (NDM-1 [7]) was “reversible” and the “reversibility of inhibition of ImiS by ITC (total heat Q constant)” value (ImiS [8]) was “reversible”.
